# Laboratory results: ChEMBL document CHEMBL1128350, “Design and evaluation of nonpeptide fibrinogen gamma-chain based GPIIb/IIIa antagonists” (J Med Chem, 1995)
# Peptide text beside a SMILES is read from it.
# Legend:
# Homo sapiens [1] = species: Homo sapiens; experiment: Percent inhibition of thrombin-induced platelet aggregation at 50 uM.; format: functional
# [2] = target: T1, Integrin alpha-IIb/beta-3 (Homo sapiens, UniProt P05106+P08514); experiment: (§1) Inhibition of fibrinogen binding to isolated integrin alphaIIb-beta3 at 50 uM.; format: protein-complex assay
# Target sequence in this assay (P05106 27-788 limits assumed): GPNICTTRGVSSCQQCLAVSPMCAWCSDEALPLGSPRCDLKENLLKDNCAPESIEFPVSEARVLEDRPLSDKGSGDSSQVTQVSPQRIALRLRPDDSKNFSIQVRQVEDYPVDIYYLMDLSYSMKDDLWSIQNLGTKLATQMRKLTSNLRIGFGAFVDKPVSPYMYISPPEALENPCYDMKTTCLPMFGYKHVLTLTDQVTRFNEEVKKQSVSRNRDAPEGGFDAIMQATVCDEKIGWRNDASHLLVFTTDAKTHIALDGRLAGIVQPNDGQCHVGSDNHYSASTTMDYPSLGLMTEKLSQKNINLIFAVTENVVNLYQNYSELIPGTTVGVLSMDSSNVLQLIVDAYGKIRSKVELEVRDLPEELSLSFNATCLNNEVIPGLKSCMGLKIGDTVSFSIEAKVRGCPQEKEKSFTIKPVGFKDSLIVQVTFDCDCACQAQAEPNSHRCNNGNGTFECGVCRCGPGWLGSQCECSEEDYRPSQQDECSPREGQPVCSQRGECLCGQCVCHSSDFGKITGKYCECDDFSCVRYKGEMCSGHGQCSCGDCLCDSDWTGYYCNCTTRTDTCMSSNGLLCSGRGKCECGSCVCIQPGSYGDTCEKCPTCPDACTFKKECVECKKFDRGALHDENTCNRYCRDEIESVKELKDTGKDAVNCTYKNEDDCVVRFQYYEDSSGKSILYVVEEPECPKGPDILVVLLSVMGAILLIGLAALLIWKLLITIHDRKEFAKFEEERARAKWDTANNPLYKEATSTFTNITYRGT
# Target sequence in this assay (P08514 32-887 limits assumed): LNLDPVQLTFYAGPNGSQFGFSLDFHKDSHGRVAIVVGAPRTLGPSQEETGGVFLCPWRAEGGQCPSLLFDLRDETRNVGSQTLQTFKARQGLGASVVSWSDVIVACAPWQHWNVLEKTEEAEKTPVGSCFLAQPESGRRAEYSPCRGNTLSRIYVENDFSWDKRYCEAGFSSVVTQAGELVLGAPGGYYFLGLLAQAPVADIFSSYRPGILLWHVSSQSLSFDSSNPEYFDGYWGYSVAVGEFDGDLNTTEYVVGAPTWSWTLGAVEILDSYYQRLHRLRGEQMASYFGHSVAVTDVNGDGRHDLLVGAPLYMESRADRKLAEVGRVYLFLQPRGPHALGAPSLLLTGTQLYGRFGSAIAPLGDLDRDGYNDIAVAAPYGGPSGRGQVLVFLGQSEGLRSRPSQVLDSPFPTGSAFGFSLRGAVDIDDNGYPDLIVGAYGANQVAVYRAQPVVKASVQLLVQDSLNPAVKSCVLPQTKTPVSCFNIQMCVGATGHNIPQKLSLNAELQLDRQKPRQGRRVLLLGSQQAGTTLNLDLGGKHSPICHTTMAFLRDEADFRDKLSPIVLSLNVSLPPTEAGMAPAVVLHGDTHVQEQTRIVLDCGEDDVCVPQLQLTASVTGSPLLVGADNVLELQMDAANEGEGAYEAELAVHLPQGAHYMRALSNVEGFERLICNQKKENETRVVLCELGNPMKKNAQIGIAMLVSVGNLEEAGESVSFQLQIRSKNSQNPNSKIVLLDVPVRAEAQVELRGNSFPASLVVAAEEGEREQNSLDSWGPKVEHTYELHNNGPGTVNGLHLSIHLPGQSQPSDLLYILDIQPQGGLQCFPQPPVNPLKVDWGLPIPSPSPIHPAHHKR
# Target sequence in this assay (P08514 891-1039 limits assumed): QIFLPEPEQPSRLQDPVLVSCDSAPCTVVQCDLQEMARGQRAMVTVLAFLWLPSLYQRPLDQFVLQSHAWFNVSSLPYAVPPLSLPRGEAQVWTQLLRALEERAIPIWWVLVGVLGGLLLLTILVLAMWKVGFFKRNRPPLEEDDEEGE
# [3] = target: T1, Integrin alpha-IIb/beta-3; experiment: Inhibition of biotinylated fibrinogen binding to isolated alpha IIb beta-3 integrin; format: protein-complex assay
# Target sequence in this assay (P05106 27-788 limits assumed): as the sequence (P05106 27-788 limits assumed) above
# Target sequence in this assay (P08514 32-887 limits assumed): as the sequence (P08514 32-887 limits assumed) above
# Target sequence in this assay (P08514 891-1039 limits assumed): as the sequence (P08514 891-1039 limits assumed) above
# Homo sapiens [4] = species: Homo sapiens; experiment: Inhibition (at 10 uM) of thrombin-induced platelet aggregation; format: functional
# Homo sapiens [5] = species: Homo sapiens; experiment: Inhibition (at 50 uM) of thrombin-induced platelet aggregation; format: functional
# Homo sapiens [6] = species: Homo sapiens; experiment: Compound was tested for inhibition of thrombin-induced platelet aggregation at the 1.0 uM Conc.; format: functional
# [7] = Percent inhibition of thrombin-induced platelet aggregation at the Conc. of 0.1 uM.
# Homo sapiens [8] = species: Homo sapiens; experiment: Inhibition of collagen-induced platelet aggregation […].; format: functional
# [9] = Percent inhibition of thrombin-induced platelet aggregation at the Conc. of 0.1 uM.; remark: listed apart in the source
# [10] = target: T1, Integrin alpha-IIb/beta-3; experiment: as §1; format: protein-complex assay; remark: listed apart in the source
# Homo sapiens [11] = species: Homo sapiens; experiment: Percent inhibition of thrombin-induced platelet aggregation at 20 uM.; format: functional
Molecule,IC50 [3] [nM],inhibition at 10 µM (Homo sapiens [4]) [%],inhibition at 50 µM (Homo sapiens [5]) [%],other results
CC(C)NCCCCC(NC(=O)OC(C)(C)C)C(=O)NC12CC3CC(CC(NCC(=O)O)(C3)C1)C2 (centres undefined),,,,inhibition at 50 µM (Homo sapiens [1]): 3%; IC50 [2]: 29900 nM
NCCCC[C@@H](N)C(=O)N1CCCC(C(=O)NCCC(=O)O)C1 (some centres undefined),2600,1,8,
CC(C)(C)OC(=O)N[C@@H](CCCCN)C(=O)N1CCC[C@H](C(=O)NCCC(=O)O)C1,28,87,91,inhibition at 1 µM (Homo sapiens [6]): 11%
CC(C)(C)OC(=O)N[C@@H](CCCCN)C(=O)N1CCC[C@@H](C(=O)NCCC(=O)O)C1,8,87,91,inhibition at 1 µM (Homo sapiens [6]): 45%; inhibition at 0.1 µM [7]: 2%; IC50 (Homo sapiens [8]): 220 nM
CC(=O)N[C@@H](CCCCN)C(=O)N1CCCC(C(=O)NCCC(=O)O)C1 (some centres undefined),340,67,87,
CC(C)(C)OC(=O)N[C@@H](CCCCNC(=O)OCc1ccccc1)C(=O)N1CCC[C@@H](C(=O)NCCC(=O)O)C1,20000,,,
NCCCCCC(=O)N1CCCC(C(=O)NCCC(=O)O)C1 (centres undefined),,87,88,inhibition at 1 µM (Homo sapiens [6]): 29%
CC(=O)N[C@H](CCCCN)C(=O)N1CCCC(C(=O)NCC(=O)O)C1 (some centres undefined),,,4,inhibition at 50 µM [3]: 24%
O=C(O)CCNC(=O)C1CCCN(C(=O)CCC2CCNCC2)C1 (centres undefined),9,89,91,inhibition at 1 µM (Homo sapiens [6]): 89%; inhibition at 0.1 µM [9]: 4%; IC50 (Homo sapiens [8]): 140 nM
H-HHLGGAKQAGDV-OH,4100,,,
CC(=O)N[C@H](CCCCN)C(=O)N1CCCC(C(=O)NCCC(=O)O)C1 (some centres undefined),74,30,88,inhibition at 1 µM (Homo sapiens [6]): 4%
CC(C)(C)OC(=O)NC(CCCN=C(N)N)C(=O)NC12CC3CC(CC(NCC(=O)O)(C3)C1)C2 (centres undefined),,,,inhibition at 50 µM (Homo sapiens [1]): 9%; inhibition [10]: 28%
CC(C)(C)OC(=O)N[C@H](CCCCN)C(=O)N1CCCC(C(=O)NCCCC(=O)O)C1 (some centres undefined),,0,0,inhibition at 50 µM [3]: 59%
COC(=O)[C@H](CC(=O)O)NC(=O)C1CCCN(C(=O)[C@H](CCCCN)NC(=O)OC(C)(C)C)C1 (some centres undefined),29,32,87,inhibition at 1 µM (Homo sapiens [6]): 2%; IC50 (Homo sapiens [8]): 2630 nM
NCCCCCC(=O)N1CCCC(CNCCC(=O)O)C1 (centres undefined),,24,63,
C[C@H](NC(=O)OCC1c2ccccc2-c2ccccc21)C(=O)N[C@@H](CCCCN)C(=O)NC12CC3CC(CC(NCC(=O)O)(C3)C1)C2,,,,inhibition at 50 µM (Homo sapiens [1]): 37%; inhibition [10]: 42%
CC(C)NCCCC[C@@H](NC(=O)OC(C)(C)C)C(=O)N1CCCC(C(=O)NCCC(=O)O)C1 (some centres undefined),,6,4,inhibition at 5 µM [3]: 20%
CC(C)(C)OC(=O)N[C@@H](CCCCN)C(=O)N1CCCC(C(=O)NCC(=O)O)C1 (some centres undefined),50000,7,24,
CC(C)(C)OC(=O)N[C@@H](CCCCN)C(=O)N1CCCC(C(=O)NCCCC(=O)O)C1 (some centres undefined),,7,43,
NCCCC[C@H](N)C(=O)N1CCCC(C(=O)NCCC(=O)O)C1 (some centres undefined),760,48,87,inhibition at 1 µM (Homo sapiens [6]): 0%
COC(=O)CNC12CC3CC(C1)CC(NC(=O)C(CCCCN)NC(=O)OCC1c4ccccc4-c4ccccc41)(C3)C2 (centres undefined),,,,inhibition at 50 µM (Homo sapiens [1]): 25%; inhibition [10]: 1%
CC(C)(C)OC(=O)N[C@H](CCCCN)C(=O)N1CCCC(C(=O)NCCC(=O)O)C1 (some centres undefined),740,12,45,
N=C(N)NCCC[C@H](N)C(=O)NCC(=O)N[C@@H](CC(=O)O)C(=O)N[C@@H](CS)C(=O)O (H-RGDC-OH),1000,,,
CC(C)(C)OC(=O)NC(CCCCN)C(=O)NC12CC3CC(CC(NCC(=O)O)(C3)C1)C2 (centres undefined),,,,inhibition at 20 µM (Homo sapiens [11]): 40%
O=C(O)CNC12CC3CC(C1)CC(NC(=O)CCC1CCNCC1)(C3)C2,,,,inhibition at 50 µM (Homo sapiens [1]): 5%; inhibition [10]: 49%
COC(=O)CC(NC(=O)CNC12CC3CC(C1)CC(NC(=O)C(CCCCN)NC(=O)OCC1c4ccccc4-c4ccccc41)(C3)C2)C(=O)NC(C(=O)OC)C(C)C (centres undefined),,,,inhibition at 50 µM (Homo sapiens [1]): 15%; inhibition [10]: 0%
NCCCCC(NC(=O)OCc1ccccc1)C(=O)NC12CC3CC(C1)CC(N(CC(=O)O)C(=O)COc1ccccc1)(C3)C2 (centres undefined),,,,inhibition at 50 µM (Homo sapiens [1]): 2%; inhibition [10]: 33%
CC(C)(C)OC(=O)N[C@H](CCCN=C(N)N)C(=O)N1CCCC(C(=O)NCCC(=O)O)C1 (some centres undefined),2700,0,17,
NCCCCC(NC(=O)OCc1ccccc1)C(=O)NC12CC3CC(CC(NCC(=O)O)(C3)C1)C2 (centres undefined),,,,inhibition at 50 µM (Homo sapiens [1]): 24%; inhibition [10]: 26%
CC(C)(C)OC(=O)N[C@@H](CCCCN)C(=O)N1CCCC(C(=O)NCCC(=O)O)C1 (some centres undefined),29,87,88,inhibition at 1 µM (Homo sapiens [6]): 21%; IC50 (Homo sapiens [8]): 350 nM
